Results on five molecules are retold here after patent US8546320B2, “Hsp9O-targeted anti-cancer chimeric peptide” (Kyoto University, priority 2008, dated 2013).

One assay has as its system Caki-1. Type of assay: cell-based, human. Particulars: Caki-1; for Anti-cancer activity (% relative to wild-type peptide) / Decrease in cell survival rate (% relative to wild-type peptide): wild-type peptide = 100%. As to the method: A total of 3×10^3 cells were inoculated per well on a 96 well plate and cultured in a medium containing 10% FBS for 24 hours, and incubated with 100 μl of a peptide having a gradual increase in concentration at 37° C. for 48 to 72 hours. The survival rate of the cells was measured by using WST-8 solution (Cell Count Reagent SF; Nacalai Tesque, Inc.).
Respective variant peptides were subjected to cell viability assay. Specifically, Caki-1 (American Type Culture Collection (Manassas, Va.) was inoculated in a total amount of 3×10^3 cells per well on a 96 well plate (Nunc™); the cells were cultured in a medium (DMEM (Tesque, Inc.) containing 10% FBS (fetal bovine serum; Biowest)) for 24 hours and incubated with 100 μl of a peptide having a gradual increase in concentration at 37° C. for 48 to 72 hours. The cell survival rate was measured by using WST-8 solution (Cell Count Reagent SF; Nacalai Tesque, Inc.) and compared with that of the wild-type Antp-TPR peptide.
Respective variant peptides were subjected to cell viability assay. Specifically, Caki-1 (American Type Culture Collection (Manassas, Va.) was inoculated in a total amount of 3×10^3 cells per well on a 96 well plate (Nunc™); the cells were cultured in a medium containing 10% FBS for 24 hours and incubated with 100 μl of a peptide having a gradual increase in concentration at 37° C. for 48 to 72 hours. The cell survival rate was measured by using WST-8 solution (Cell Count Reagent SF; Nacalai Tesque, Inc.) and compared with that of the wild-type Antp-TPR peptide.

In another assay the test system is cancer cells. The experiment in a line: Cell viability assay, summary statements on cancer cells. Type of assay: cell-based. To be noted: single mutation in TPR or Antp region of Antp-TPR.

Where a SMILES comes first, the peptide text is derived from it.

With `CC[C@H](C)[C@H](NC(=O)[C@H](CCCNC(=N)N)NC(=O)[C@H](C)NC(=O)[C@H](Cc1ccc(O)cc1)NC(=O)[C@H](C)NC(=O)[C@H](CCCCN)NC(=O)[C@H](CCCCN)NC(=O)[C@H](CCCCN)NC(=O)[C@H](Cc1c[nH]c2ccccc12)NC(=O)[C@H](CCCCN)NC(=O)[C@H](CCSC)NC(=O)[C@H](CCCCN)NC(=O)[C@H](CCCNC(=N)N)NC(=O)[C@H](CC(N)=O)NC(=O)[C@H](CCC(N)=O)NC(=O)[C@H](Cc1ccccc1)NC(=O)[C@H](Cc1c[nH]c2ccccc12)NC(=O)[C@@H](NC(=O)[C@H](CCCCN)NC(=O)[C@@H](NC(=O)[C@H](CCC(N)=O)NC(=O)[C@@H](N)CCCNC(=N)N)[C@@H](C)CC)[C@@H](C)CC)C(=O)NCC(=O)N[C@@H](CC(N)=O)C(=O)N[C@@H](CO)C(=O)N[C@@H](Cc1ccc(O)cc1)C(=O)N[C@@H](Cc1ccccc1)C(=O)N[C@@H](CCCCN)C(=O)O` [Antp R11K-TPR] (H-RQIKIWFQNRKMKWKKKAYARIGNSYFK-OH; N-terminus and C-terminus assumed), in the assay on Caki-1, the “killing effect compared with the wild-type peptide” value is “stronger than that of the wild-type peptide”, the “Anti-cancer activity (% relative to wild-type peptide)” value was found to be 104.39% and the “Decrease in cell survival rate (% relative to wild-type peptide)” value (shortened to “Decrease … (% relative to wild-type peptide)”) turned out to be 158.09%. For the same molecule, the “effect compared with the wild-type protein (summary of mutations)” value in the assay with cancer cells is recorded as “effect similar to that of the wild-type protein”.
As to `CC[C@H](C)[C@H](NC(=O)[C@H](CCCNC(=N)N)NC(=O)[C@H](C)NC(=O)[C@H](Cc1ccc(O)cc1)NC(=O)[C@H](C)NC(=O)[C@H](CCCCN)NC(=O)[C@H](CCCCN)NC(=O)[C@H](CCCCN)NC(=O)[C@H](Cc1c[nH]c2ccccc12)NC(=O)[C@H](CCCCN)NC(=O)[C@H](CCSC)NC(=O)[C@H](CCCNC(=N)N)NC(=O)[C@H](CCCNC(=N)N)NC(=O)[C@H](CC(N)=O)NC(=O)[C@H](CCC(N)=O)NC(=O)[C@H](Cc1ccccc1)NC(=O)[C@H](Cc1c[nH]c2ccccc12)NC(=O)[C@@H](NC(=O)[C@H](CCCCN)NC(=O)[C@@H](NC(=O)[C@H](CC(N)=O)NC(=O)[C@@H](N)CCCNC(=N)N)[C@@H](C)CC)[C@@H](C)CC)C(=O)NCC(=O)N[C@@H](CC(N)=O)C(=O)N[C@@H](CO)C(=O)N[C@@H](Cc1ccc(O)cc1)C(=O)N[C@@H](Cc1ccccc1)C(=O)N[C@@H](CCCCN)C(=O)O` [Antp Q2N-TPR] (H-RNIKIWFQNRRMKWKKKAYARIGNSYFK-OH; N-terminus and C-terminus assumed), in the assay with Caki-1, the “Anti-cancer activity (% relative to wild-type peptide)” value stood at 88.97% and the “Decrease … (% relative to wild-type peptide)” value stood at 52.02%. For the same molecule, in the assay with cancer cells, the “effect compared with the wild-type protein (summary of mutations)” value was “effect similar to that of the wild-type protein”.
For the molecule `CC[C@H](C)[C@H](NC(=O)[C@H](CCCNC(=N)N)NC(=O)[C@H](C)NC(=O)[C@H](Cc1ccc(O)cc1)NC(=O)[C@H](C)NC(=O)[C@H](CCCCN)NC(=O)[C@H](CCCCN)NC(=O)[C@H](CCCCN)NC(=O)[C@H](Cc1c[nH]c2ccccc12)NC(=O)[C@H](CCCCN)NC(=O)[C@H](CCSC)NC(=O)[C@H](CCCNC(=N)N)NC(=O)[C@H](CCCNC(=N)N)NC(=O)[C@H](CC(N)=O)NC(=O)[C@H](CCC(N)=O)NC(=O)[C@H](Cc1ccccc1)NC(=O)[C@H](Cc1c[nH]c2ccccc12)NC(=O)[C@@H](NC(=O)[C@H](CCCNC(=N)N)NC(=O)[C@@H](NC(=O)[C@H](CCC(N)=O)NC(=O)[C@@H](N)CCCNC(=N)N)[C@@H](C)CC)[C@@H](C)CC)C(=O)NCC(=O)N[C@@H](CC(N)=O)C(=O)N[C@@H](CO)C(=O)N[C@@H](Cc1ccc(O)cc1)C(=O)N[C@@H](Cc1ccccc1)C(=O)N[C@@H](CCCCN)C(=O)O` [Antp K4R-TPR] (H-RQIRIWFQNRRMKWKKKAYARIGNSYFK-OH; N-terminus and C-terminus assumed), in the assay on Caki-1, the “killing effect compared with the wild-type peptide” value is “stronger than that of the wild-type peptide”, the “Anti-cancer activity (% relative to wild-type peptide)” value is listed as 109.86% and the “Decrease … (% relative to wild-type peptide)” value stood at 573.28%. Besides, the “effect compared with the wild-type protein (summary of mutations)” value in the assay on cancer cells is “effect higher than the wild-type protein”.
Turning to `CC[C@H](C)[C@H](NC(=O)[C@H](CCCNC(=N)N)NC(=O)[C@H](C)NC(=O)[C@H](Cc1ccc(O)cc1)NC(=O)[C@H](C)NC(=O)[C@H](CCCCN)NC(=O)[C@H](CCCNC(=N)N)NC(=O)[C@H](CCCCN)NC(=O)[C@H](Cc1c[nH]c2ccccc12)NC(=O)[C@H](CCCCN)NC(=O)[C@H](CCSC)NC(=O)[C@H](CCCNC(=N)N)NC(=O)[C@H](CCCNC(=N)N)NC(=O)[C@H](CC(N)=O)NC(=O)[C@H](CCC(N)=O)NC(=O)[C@H](Cc1ccccc1)NC(=O)[C@H](Cc1c[nH]c2ccccc12)NC(=O)[C@@H](NC(=O)[C@H](CCCCN)NC(=O)[C@@H](NC(=O)[C@H](CCC(N)=O)NC(=O)[C@@H](N)CCCNC(=N)N)[C@@H](C)CC)[C@@H](C)CC)C(=O)NCC(=O)N[C@@H](CC(N)=O)C(=O)N[C@@H](CO)C(=O)N[C@@H](Cc1ccc(O)cc1)C(=O)N[C@@H](Cc1ccccc1)C(=O)N[C@@H](CCCCN)C(=O)O` [Antp K16R-TPR] (H-RQIKIWFQNRRMKWKRKAYARIGNSYFK-OH; N-terminus and C-terminus assumed), in the assay on Caki-1, the “killing effect compared with the wild-type peptide” value was “stronger than that of the wild-type peptide”, the “Anti-cancer activity (% relative to wild-type peptide)” value amounted to 110.26% and the “Decrease … (% relative to wild-type peptide)” value was 709.01%. The “effect compared with the wild-type protein (summary of mutations)” value with cancer cells is on record as “effect higher than the wild-type protein”.
In the same order, the values of `CC[C@H](C)[C@H](NC(=O)[C@H](CCCNC(=N)N)NC(=O)[C@H](C)NC(=O)[C@H](Cc1ccc(O)cc1)NC(=O)[C@H](C)NC(=O)[C@H](CCCCN)NC(=O)[C@H](CCCCN)NC(=O)[C@H](CCCCN)NC(=O)[C@H](Cc1c[nH]c2ccccc12)NC(=O)[C@H](CCCCN)NC(=O)[C@H](CCSC)NC(=O)[C@H](CCCNC(=N)N)NC(=O)[C@H](CCCCN)NC(=O)[C@H](CC(N)=O)NC(=O)[C@H](CCC(N)=O)NC(=O)[C@H](Cc1ccccc1)NC(=O)[C@H](Cc1c[nH]c2ccccc12)NC(=O)[C@@H](NC(=O)[C@H](CCCCN)NC(=O)[C@@H](NC(=O)[C@H](CCC(N)=O)NC(=O)[C@@H](N)CCCNC(=N)N)[C@@H](C)CC)[C@@H](C)CC)C(=O)NCC(=O)N[C@@H](CC(N)=O)C(=O)N[C@@H](CO)C(=O)N[C@@H](Cc1ccc(O)cc1)C(=O)N[C@@H](Cc1ccccc1)C(=O)N[C@@H](CCCCN)C(=O)O` [Antp R10K-TPR] (H-RQIKIWFQNKRMKWKKKAYARIGNSYFK-OH; N-terminus and C-terminus assumed) are “stronger than that of the wild-type peptide”, 110.30%, 727.03% and “effect similar to that of the wild-type protein”.
